The source of these data is publication PMC4066839 (MedChemComm, 2014).

The test system of this assay is C. neoformans. Description: in vitro growth inhibition. The format is cell-based, Cryptococcus neoformans. The note with it: highest tested concentration 20 μg/mL; NA = not active.

Regarding `COc1ccc(-c2nc(C[C@H](N)C(=O)N[C@@H](CCCNC(=N)N)C(=O)NCc3ccccc3)c[nH]2)cc1` [Peptide 5d], the “C. neoformans IC50 (concentration that affords 50% inhibition of growth)” value was “inactive”.
